The values that follow come from patent US20250188078A1, “SMALL MOLECULE INHIBITORS OF THE CRL4 UBIQUITIN LIGASE” (Cornell University, priority 2022, published 2025).

The target of test [1] is CUL4A-DDB1-BPB interaction (Homo sapiens (Human), UniProt Q16531). Kind of test: AlphaLISA in vitro binding assay, CUL4A and DDB1-BPB binding. The conditions noted are these: inhibition of CUL4A and DDB1-BPB binding. In outline: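 Compound disruption of CUL4A binding to DDB1-BPB measured by AlphaLISA/AlphaScreen bead proximity in 384-well format. IC50 from nonlinear log(inhibitor)-vs-response curve fit.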
CUL4A-DDB1-BPB interaction, sequence (Q16531 403-706): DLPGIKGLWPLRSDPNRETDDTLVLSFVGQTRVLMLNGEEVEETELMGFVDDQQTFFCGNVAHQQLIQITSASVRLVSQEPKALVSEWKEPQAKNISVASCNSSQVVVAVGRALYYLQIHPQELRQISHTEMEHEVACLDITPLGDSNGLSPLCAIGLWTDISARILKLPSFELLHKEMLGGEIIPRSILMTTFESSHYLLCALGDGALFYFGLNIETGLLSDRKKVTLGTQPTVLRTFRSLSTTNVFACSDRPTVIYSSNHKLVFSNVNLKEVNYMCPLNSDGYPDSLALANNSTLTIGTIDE

For test [2], the system named is CUL4A^high MDA-MB-468 breast cancer cells. Kind of test: Cell killing in CUL4-high MDA-MB-468 cells (CellTiter Glo). The format is cell-based. The note with it: Homo sapiens, 8 days treatment. In outline:
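Cells seeded, treated after 24 h with DMSO or compound (0 to 20 μM). Medium and compound replaced every 48 h over 8 days. Viability measured by CellTiter-Glo luminescence; EC50 (50% killing) from log(inhibitor) vs response nonlinear fit.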

Test [3] concerns CUL4A^low T47D breast cancer cells. As to the kind of experiment: Cell killing in CUL4-low T47D cells (CellTiter Glo). The format is cell-based. The note with it: Homo sapiens, 192 h, 8 days treatment.
The subject of test [4] is CUL4A-Vpr-dependent UNG2 degradation in Hela DOX-inducible-Vpr cells. Kind of test: DOX-induced Vpr-mediated CUL4-dependent UNG2 degradation (Western blot). In kind it is cell-based. The note with it: FIG. 6C. Here is the method:
FIG. 6C. Inhibition of DOX-induced Vpr-mediated CUL4-dependent UNG2 degradation by small molecule CUL4 inhibitors. In brief, Hela DOX-inducible-Vpr cells were seeded in 6-well plates. After 24 hours incubation, medium was changed to growth medium with 75 ng/ml doxycycline (DOX) overnight. On the third day, DMSO or indicated concentrations of compounds in serum-free medium containing DOX were added. The cells were lysed in buffer containing 150 mM NaCl, 1% SDS, 10 mM Tris-HCl (pH 6.8), 1× complete protease inhibitor cocktail and 10 U Benzo nuclease. Equal amounts of proteins were resolved on 9% SDS-PAGE gel and UNG2 levels were detected using anti-UNG2 (2C12) antibody (Origene #TA503563). α-tubulin (Proteintech, #66031-1-Ig) was used as an internal control. Normalized UNG2/α-tubulin ratio is higher in the compound treated sample than DMSO treated sample. (−) means that no change happens between compound treated sample with control sample.

Test [5] concerns CUL1-dependent IκB-α degradation in Hela cells. Kind of test: TNFα-induced CUL1/SCF-dependent IκBα degradation assay (Western blot). In kind it is cell-based. The conditions noted are these: FIG. 6D. Here is the method: FIG. 6D Western blotting of TNFα-induced […] IκBα degradation assay. Hela cells were seeded in 6-well plates. After 24 hours incubation, DMSO or indicated concentration of compounds were added with serum-free medium for 2 hours incubation. TNFα was added and cells were harvested, lysed in buffer containing 150 mM NaCl, 1% SDS, 10 mM Tris-HCl (pH 6.8), 1× complete protease inhibitor cocktail and 10 U Benzo nuclease. Equal amounts of proteins were resolved on 9% SDS-PAGE gel and IκBα levels were detected using anti-IκBα rabbit polyclonal antibody (Proteintech, 10268-1-AP). α-tubulin (Proteintech, #66031-1-Ig) was used as an internal loading control. TNFα-induced IκBα degradation was mediated by CUL1/SCF^βTrCP E3 ligase.

The mark [6] stands for this setting: 192 h, MDA-MB-468 cells, read-out: EC50 CUL4-High Cells (cell killing).
Setting [7] is: T47D cells, read-out: EC50 CUL4-Low Cells (cell killing).

Read-outs that look alike come from different tables or passages of the source. A value given as a limit tells only on which side of the number the result lay.

For `CN(c1ccc(-c2nc(C(=O)O)cc3c2[nH]c2cccc(F)c23)cc1)S(=O)(=O)c1ccccc1` [PA99, 5-fluoro-1-(4-(N-methylphenylsulfonamido)phenyl)-9H-pyrido[3,4-b]indole-3-carboxylic acid], in test [1], the IC50 stood at 380 nM. Moreover, the EC50 in test [2] (setting [6]) was determined as 1180 nM; in test [2] (MDA-MB-468, 192 h, Table 3, 0 to 20 μM compound, read-out: EC50 OF cell killing, MDA-MB-468) it was 1180 nM; in test [3] (setting [7]), 8270 nM; in test [3] (T47D, Table 3, 0 to 20 μM compound, read-out: EC50 OF cell killing, T47D), 8270 nM. Further, the “Inhibition of CUL4A-Vpr-dependent UNG2 degradation” value in test [4] is on record as “robust inhibition”. In addition, the “Inhibition of TNF-α induced CUL1-dependent IκB-α degradation” value in test [5] is listed as “no inhibition”.
For the compound `CN(c1ccc(-c2nc(C(=O)O)cc3c2[nH]c2ccc(F)cc23)cc1)S(=O)(=O)c1ccccc1` [PA93], the IC50 in test [1] worked out at 210 ± 100 nM. Also, the EC50 in test [2] (setting [6]) was 11100 nM; in test [3] (setting [7]), above 100000 nM. Further, in test [4], the “Inhibition of CUL4A-Vpr-dependent UNG2 degradation” value was “robust inhibition”. The “Inhibition of TNF-α induced CUL1-dependent IκB-α degradation” value in test [5] is “no inhibition”.
